# According to patent publication US11091423B2, “Reagents and methods for esterification” (Wisconsin Alumni Research Foundation, priority 2013, dated 2021):
# Target: T1, ribonuclease A (RNase A) (Bos taurus, UniProt P61823)
# T1 sequence (P61823 27-150): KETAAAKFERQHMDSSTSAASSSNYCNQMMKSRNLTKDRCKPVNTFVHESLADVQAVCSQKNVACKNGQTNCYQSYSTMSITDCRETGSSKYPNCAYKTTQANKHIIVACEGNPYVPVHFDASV
# Experiment: RNase A labeling (esterification of carboxyl groups), extent by MALDI, labelled residues by trypsin digestion and mass spectrometry
# Assay type: biochemical
# Details: for extent of labeling of RNase A (average number of the eleven carboxylates esterified): 10 equivalents of diazo compound; for RNase A residues labelled (chemoselectivity): trypsin digestion coupled with mass spectrometry
# Experimental: To address biocompatibility of diazo-compounds for esterification more directly, the relative esterification efficiency of these diazo compounds was compared with the eleven carboxyl groups present in ribonuclease A (RNase A).[24]
# Only after the addition of 200 equivalents was any esterification with diazo-acetamide 1 observed which correlates with its lack of selectivity under aqueous conditions (Scheme 2).
# Using trypsin digestion coupled with mass spectrometry, it was determined which residues were labelled and the results fit well with the observed chemoselectivity of each diazo compound. […] This provides further evidence that properly tuned diazo compounds can not only attain high levels of labelling, but can also selectively label specific residues.
# Ribonuclease A (0.001 g, 0.073 μmol) was dissolved in MES buffer (10 mM, pH=5.5, 0.1 mL) and diazobenzylacetamide (0.0026 g, 14.6 μmol) was dissolved in acetonitrile (0.1 mL). The two solutions were combined and the reaction was allowed to stir 4 hours at 37° C.
# Ribonuclease A (0.001 g, 0.073 μmol) was dissolved in MES buffer (10 mM, pH=5.5, 0.1 mL) and a stock solution of diazofluorene in acetonitrile was made (Stock solution: 0.001 g, 7.30 μmol, 1 mL CH3CN). The stock solution of diazo compound (0.1 mL, 0.730 μmol) was added to the ribonuclease solution and the reaction was allowed to stir 4 hours at 37° C. Any remaining diazo compound was then quenched by adding 0.1 M acetic acid (0.1 mL) and the reaction was concentrated and the extent of labeling was determined by MALDI spectroscopy to be ˜3 labels per RNase A.
# [1] = 4 hours at 37° C., MES buffer pH 5.5/acetonitrile
extent of labeling of RNase A (average number of the eleven carboxylates esterified) [1],"extent of labeling of RNase A (average number of the eleven carboxylates esterified) (4 hours at 37° C., MES buffer pH 5.5/acetonitrile, listed as diazobenzylacetamide)","extent of labeling of RNase A (200 equivalents of diazo compound, 4 hours at 37° C., MES buffer pH 5.5/acetonitrile)",SMILES,RNase A residues labelled (chemoselectivity) (200 equiv.),RNase A residues labelled (chemoselectivity) (10 equiv.)
incapable of labelling,no labeling was observed,< 1 label per RNase A,"[N-]=[N+]=C(Cc1ccccc1)C(N)=O [compound 1, Diazobenzylacetamide]","comparably labelling residues Glu9, Asp14, Glu49, Glu111, and the C-terminal Val124",–
~3 labels per RNase A,–,–,"[N-]=[N+]=C1c2ccccc2-c2ccccc21 [compound 2, Diazofluorene]",–,"almost exclusively labelling Asp14, Glu49, Glu111, and Asp121"
